Data from PubChem BioAssay AID651650 (Sanford-Burnham Center for Chemical Genomics, 2012).
Calls of active or inactive are those of the source.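 Rule for the calls: active = mean IC50 below 20 µM in each of the two panels, so potent in both; inactive = the rest.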

Target: Neuropilin-1 (Homo sapiens) (UniProt O14786)
Experiment: blockers of CendR peptide binding to NRP-1 – biochemical, FP and AlphaScreen panel, dose response (AID 651650)
Details: NRP-1 b1b2 / RPARPAR peptide binding, FP or AlphaScreen
[1] = AlphaScreen, run 1, individual panel run IC50
[2] = FP, run 1, individual panel run IC50
[3] = FP, run 2, individual panel run IC50

Chain of Neuropilin-1 (Homo sapiens) (O14786 whole entry, looked up): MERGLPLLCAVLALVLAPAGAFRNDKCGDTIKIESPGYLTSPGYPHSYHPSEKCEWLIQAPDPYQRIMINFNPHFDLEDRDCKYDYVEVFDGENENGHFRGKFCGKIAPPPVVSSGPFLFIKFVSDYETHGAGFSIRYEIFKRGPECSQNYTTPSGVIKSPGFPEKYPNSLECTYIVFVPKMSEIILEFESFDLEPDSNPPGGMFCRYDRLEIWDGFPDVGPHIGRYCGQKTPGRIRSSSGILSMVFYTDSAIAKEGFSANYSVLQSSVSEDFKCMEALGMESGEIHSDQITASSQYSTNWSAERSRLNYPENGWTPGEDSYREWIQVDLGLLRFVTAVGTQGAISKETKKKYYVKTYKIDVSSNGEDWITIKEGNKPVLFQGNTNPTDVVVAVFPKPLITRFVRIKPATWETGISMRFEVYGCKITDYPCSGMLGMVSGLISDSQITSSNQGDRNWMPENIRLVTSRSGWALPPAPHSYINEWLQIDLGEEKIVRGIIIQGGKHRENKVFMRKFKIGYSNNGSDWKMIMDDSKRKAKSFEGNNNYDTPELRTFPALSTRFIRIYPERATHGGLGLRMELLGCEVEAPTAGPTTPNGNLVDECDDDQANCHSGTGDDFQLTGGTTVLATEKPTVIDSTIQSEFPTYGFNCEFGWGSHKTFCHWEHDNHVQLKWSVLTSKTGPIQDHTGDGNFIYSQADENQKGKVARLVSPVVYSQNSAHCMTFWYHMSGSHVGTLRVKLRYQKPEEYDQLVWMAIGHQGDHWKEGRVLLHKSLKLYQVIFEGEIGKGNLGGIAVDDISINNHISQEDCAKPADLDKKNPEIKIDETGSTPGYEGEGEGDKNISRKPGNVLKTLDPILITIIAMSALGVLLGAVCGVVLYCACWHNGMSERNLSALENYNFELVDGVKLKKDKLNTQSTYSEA

Compound	IC50 (AlphaScreen, mean of runs)	IC50 [1]	IC50 (FP, mean of runs)	IC50 [2]	IC50 [3]
COC(=O)Cc1ccc(NC(=S)NCCCO)cc1	> 100 µM (inactive)	> 100 µM	> 95 µM (inactive)	> 95 µM	> 95 µM
COCCNC(=O)c1cc(-c2ccccc2)nn1CC1CC(c2cccc([N+](=O)[O-])c2)=NO1 (stereo not given)	> 100 µM (inactive)	> 100 µM	> 95 µM (inactive)	> 95 µM	> 95 µM
C=CCN(CC=C)C(=O)C1CC(=O)N(c2ccc(Br)cc2)C1 (stereo not given)	> 100 µM (inactive)	> 100 µM	> 95 µM (inactive)	> 95 µM	> 95 µM
CCCCOc1ccc(S(=O)(=O)N2CCN(C)CC2)cc1	inactive	76.4 µM	> 95 µM (inactive)	> 95 µM	> 95 µM
c1ccc2c(c1)CCCN2Cc1nnnn1CC1CCCO1 (stereo not given)	inactive	25.8 µM	inactive	33.9 µM	> 95 µM
CCOc1ccc(S(=O)(=O)NNC(=O)c2cc3ccccc3o2)cc1	> 100 µM (inactive)	> 100 µM	> 95 µM (inactive)	> 95 µM	> 95 µM
O=C(Cc1ccc(F)cc1)N1CCN=C1SCc1ccc([N+](=O)[O-])cc1	> 100 µM (inactive)	> 100 µM	> 95 µM (inactive)	> 95 µM	> 95 µM
COc1ccc(N=C2C(=Nc3ccc(OC)cc3)N(c3ccc(N(C)C)cc3)C(=S)N2c2ccc(OC)cc2)cc1	> 100 µM (inactive)	> 100 µM	> 95 µM (inactive)	> 95 µM	> 95 µM
O=C(O)c1ccc(C(=O)Nc2cccc3ccccc23)c(C(=O)O)c1	inactive	49.3 µM	> 95 µM (inactive)	> 95 µM	> 95 µM
Cc1cc(NC(=O)CCC(=O)NNC(=O)c2ccc(C(C)(C)C)cc2)no1	8.63 µM	8.63 µM	> 95 µM (inactive)	> 95 µM	> 95 µM
CCCn1c(C)cc(C(=O)CSc2nc3nc(C)cc(C)n3n2)c1C	> 100 µM (inactive)	> 100 µM	> 95 µM (inactive)	> 95 µM	> 95 µM
NS(=O)(=O)c1cccnc1Nc1cccc(Cl)c1Cl	> 100 µM (inactive)	> 100 µM	> 95 µM (inactive)	> 95 µM	> 95 µM
C[C@@H](NC(=O)c1nc[nH]c1C(=O)NCc1ccccc1)c1ccccc1	> 100 µM (inactive)	> 100 µM	> 95 µM (inactive)	> 95 µM	> 95 µM
Cc1ccc(OCC(=O)Nc2ccc(C)c(S(=O)(=O)N3CCCCCC3)c2)c([N+](=O)[O-])n1	> 100 µM (inactive)	> 100 µM	> 95 µM (inactive)	> 95 µM	> 95 µM
Clc1nc(-c2ccccn2)nc2scc(-c3ccccc3)c12	> 100 µM (inactive)	> 100 µM	> 95 µM (inactive)	> 95 µM	> 95 µM
O=C(Nc1ccc(F)cc1)c1cc(S(=O)(=O)Nc2ccc(F)cc2)cs1	> 100 µM (inactive)	> 100 µM	> 95 µM (inactive)	> 95 µM	> 95 µM
Cn1c(=O)c2[nH]c(NCCCN3CCOCC3)nc2n(C)c1=O	> 100 µM (inactive)	> 100 µM	inactive	> 95 µM	56.1 µM
CN1CCC(=NNC(=O)c2ccco2)CC1	> 100 µM (inactive)	> 100 µM	> 95 µM (inactive)	> 95 µM	> 95 µM
Cc1onc(-c2ccc(Cl)cc2Cl)c1-c1csc(COc2ccccc2)n1	inactive	59.1 µM	> 95 µM (inactive)	> 95 µM	> 95 µM
O=c1ccsn1Cc1ccccc1	> 100 µM (inactive)	> 100 µM	> 95 µM (inactive)	> 95 µM	> 95 µM
COc1ccc(C(CNc2ccc(S(=O)(=O)N3CCCC3)cc2[N+](=O)[O-])N2CCCC2)cc1 (stereo not given)	12.2 µM	12.2 µM	> 95 µM (inactive)	> 95 µM	> 95 µM
O=c1oc(Nc2ccccc2F)nc2ccccc12	> 100 µM (inactive)	> 100 µM	> 95 µM (inactive)	> 95 µM	> 95 µM
NC(=O)C1CCN(c2nc(-c3ccc4occc(=O)c4c3)cs2)CC1	> 100 µM (inactive)	> 100 µM	> 95 µM (inactive)	> 95 µM	> 95 µM

Compound	IC50 (AlphaScreen, mean of runs)	IC50 [1]	IC50 (FP, mean of runs)	IC50 [2]	IC50 [3]
COc1ccc(NC(=O)C(C)Sc2ccccc2)cc1 (stereo not given)	> 100 µM (inactive)	> 100 µM	> 95 µM (inactive)	> 95 µM	> 95 µM
O=C(COc1ccc(Br)cc1CO)Nc1ccc(F)cc1	> 100 µM (inactive)	> 100 µM	> 95 µM (inactive)	> 95 µM	> 95 µM
COC(=O)N[C@@H]1C[C@H]2[C@@H]3CC[C@H]4C[C@@H](OC)CC[C@]4(C)[C@H]3CC[C@]12C	inactive	69.5 µM	> 95 µM (inactive)	> 95 µM	> 95 µM
CCCNC(=S)Nc1cccc(C(F)(F)F)c1	> 100 µM (inactive)	> 100 µM	> 95 µM (inactive)	> 95 µM	> 95 µM
CC(=O)Nc1cc(F)c2c(c1F)Cc1cc(F)ccc1-2	inactive	89.2 µM	> 95 µM (inactive)	> 95 µM	> 95 µM
CCc1onc(C)c1C(=O)Nc1cc(C)ccc1OC	16 µM	16 µM	> 95 µM (inactive)	> 95 µM	> 95 µM
O=C(CCn1c(=O)c2cccn2c2cccnc21)NCc1cccc(Cl)c1	> 100 µM (inactive)	> 100 µM	> 95 µM (inactive)	> 95 µM	> 95 µM
NC(=O)C1=C[C@H](c2ccc(Br)cc2)C[C@H](OCc2ccc(CO)cc2)O1	> 100 µM (inactive)	> 100 µM	> 95 µM (inactive)	> 95 µM	> 95 µM
CCOC(=O)c1ccc(NC(=O)CN2CCc3ccccc3C2)cc1	> 100 µM (inactive)	> 100 µM	> 95 µM (inactive)	> 95 µM	> 95 µM
O=C(c1cccc(F)c1)N1CCN(c2ccc([N+](=O)[O-])c(N3CCCCC3)c2)CC1	> 100 µM (inactive)	> 100 µM	> 95 µM (inactive)	> 95 µM	> 95 µM
O=S(=O)(c1ccccc1)c1nc(-c2ccc(F)cc2)oc1N1CCOCC1	> 100 µM (inactive)	> 100 µM	> 95 µM (inactive)	> 95 µM	> 95 µM
C=C1CCN(C(C(=O)OC)C(C)C)S(=O)(=O)c2ccc(F)cc21 (stereo not given)	> 100 µM (inactive)	> 100 µM	> 95 µM (inactive)	> 95 µM	> 95 µM
Cc1cccc(C)c1Nc1nnc(SCC(=O)Nc2cc(S(=O)(=O)N3CCCCC3)ccc2Cl)s1	> 100 µM (inactive)	> 100 µM	> 95 µM (inactive)	> 95 µM	> 95 µM
CN(C)CCn1c(=O)n(-c2ccc(F)cc2)c(=O)c2c3c(sc21)CCCCC3	inactive	44.2 µM	> 95 µM (inactive)	> 95 µM	> 95 µM
COC(=O)CCCC1=CC2=CC(=O)C(C)(OC(=O)c3cccs3)C(=O)C2=CN1CCCOC(C)C (stereo not given)	5.63 µM	5.63 µM	> 95 µM (inactive)	> 95 µM	> 95 µM
NC(=O)C(c1ccc(Cl)cc1Cl)c1ncc(C(F)(F)F)cc1Cl (stereo not given)	> 100 µM (inactive)	> 100 µM	> 95 µM (inactive)	> 95 µM	> 95 µM
CCOC(=O)C1CCN(S(=O)(=O)c2ccc3c(c2)CCN3C(=O)C2CCC2)CC1	> 100 µM (inactive)	> 100 µM	> 95 µM (inactive)	> 95 µM	> 95 µM
Cc1cccc(NS(=O)(=O)c2cccs2)c1	> 100 µM (inactive)	> 100 µM	> 95 µM (inactive)	> 95 µM	> 95 µM
COc1cc(C(=O)NCc2ccccc2)cc(Br)c1OC	> 100 µM (inactive)	> 100 µM	> 95 µM (inactive)	> 95 µM	> 95 µM
CCCN=C1N/C(=C\c2ccco2)C(=O)N1c1ccccc1	> 100 µM (inactive)	> 100 µM	> 95 µM (inactive)	> 95 µM	> 95 µM
Cc1occc1C(=O)N1N=C(C2CC2)CC1(O)C(F)(F)F (stereo not given)	> 100 µM (inactive)	> 100 µM	> 95 µM (inactive)	> 95 µM	> 95 µM
COc1cc(CN2C[C@@H](CO)O[C@@H](n3cnc4c(N5CCN(c6ccccc6)CC5)ncnc43)C2)cc(OC)c1OC	inactive	96.3 µM	> 95 µM (inactive)	> 95 µM	> 95 µM
